The text below walks through data of patent US6171808A, “Mutant luciferases” (priority 1995, dated 2001).

The target in experiment [1] is T1, Photinus pyralis luciferase, recombinant wild-type (601a) (Photinus pyralis, UniProt P08659).
T1 construct: made in house; host or cells: E. coli JM109 (pPW601a, derived from pDR540 and the luc gene of pGEM-luc)
The experiment is described as follows: Km determination with respect to ATP, luminometric luciferase assay. In kind it is biochemical. As to conditions: 21° C., tricine pH7.8, 470 μM D-luciferin, 6.25 to 400 μM ATP.

For experiment [2], the target named is T2, Photinus pyralis luciferase variant 601aG1, E270K (270 lysine Km change), SEQ ID No 2 with Xaa = lysine (Photinus pyralis, UniProt P08659, E270K).
T2 construct: made in house; host or cells: E. coli BL21 (DE3) (pPW601G1)
The description is as above. It counts as biochemical. As to conditions: read-out: Km value with respect to ATP; 21° C., tricine pH7.8, 470 μM D-luciferin, 6.25 to 400 μM ATP. The source says: The Km mutant was initially generated by hydroxylamine induced mutagenesis of the luc gene within pPW304 to provide plasmid 304 G1 bearing a single base change in the DNA sequence at 811 of SEQ ID No 1 resulting in an amino acid glutamate change to lysine at position 270. A 1.1 kb DNA fragment (BstE II/Stu I) was cloned from pPW304 and used to replace the corresponding fragment in pP601a to form pPW601G1, thus providing a luc gene encoding for luciferase without the four extra amino acids encoded by pPW304 (M not included from M-A-R-I-Q).

The target of experiment [3] is T3, Photinus pyralis luciferase double mutant 601aG1K, E270K + E354K, SEQ ID No 4 (Photinus pyralis, UniProt P08659, E270K/E354K).
T3 construct: made in house; host or cells: E. coli JM109 (pPW601aG1K, pDR540-derived)
Described as above. In kind it is biochemical. As to conditions: read-out: Km value with respect to ATP; 21° C., tricine pH7.8, 470 μM D-luciferin, 6.25 to 400 μM ATP.

The target of experiment [4] is Photinus pyralis luciferase variant 601aK, E354K (thermostable mutant 354 lysine) (Photinus pyralis, UniProt P08659, E354K). As to conditions: read-out: Km value with respect to ATP; 21° C., tricine pH7.8, 470 μM D-luciferin, 6.25 to 400 μM ATP.
Chain of Photinus pyralis luciferase variant 601aK, E354K (thermostable mutant 354 lysine) (P08659 whole entry E354K): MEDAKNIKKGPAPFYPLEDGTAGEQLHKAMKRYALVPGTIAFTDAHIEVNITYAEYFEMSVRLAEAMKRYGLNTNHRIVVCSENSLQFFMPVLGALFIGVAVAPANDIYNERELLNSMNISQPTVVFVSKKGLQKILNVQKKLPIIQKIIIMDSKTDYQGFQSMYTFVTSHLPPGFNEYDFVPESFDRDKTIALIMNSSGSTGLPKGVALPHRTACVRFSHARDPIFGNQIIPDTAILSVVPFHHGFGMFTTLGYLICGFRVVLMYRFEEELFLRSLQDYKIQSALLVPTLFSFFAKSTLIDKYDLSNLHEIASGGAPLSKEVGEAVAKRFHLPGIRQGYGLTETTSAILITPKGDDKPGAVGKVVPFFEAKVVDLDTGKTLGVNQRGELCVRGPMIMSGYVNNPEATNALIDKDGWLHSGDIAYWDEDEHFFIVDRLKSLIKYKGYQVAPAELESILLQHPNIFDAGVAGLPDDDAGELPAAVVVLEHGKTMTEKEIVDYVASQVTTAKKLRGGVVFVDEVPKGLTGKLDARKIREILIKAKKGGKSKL

T2 sequence (P08659 whole entry E270K): as the sequence (P08659 whole entry E354K) above, with E270K, K354E counted along it
T1 sequence (P08659 whole entry): as the sequence (P08659 whole entry E354K) above, with K354E counted along it
T3 sequence (P08659 whole entry E270K/E354K): as the sequence (P08659 whole entry E354K) above, with E270K counted along it

As to `Nc1ncnc2c1ncn2[C@@H]1O[C@H](COP(=O)(O)OP(=O)(O)OP(=O)(O)O)[C@@H](O)[C@H]1O` [ATP, adenosine triphosphate], the Km was determined as 66.1 µM in experiment [1], 28.7 µM in experiment [2], 25.2 µM in experiment [3] and 61.3 µM in experiment [4].
